# Tests used:
# CD4+ T cells [1] = test: Vaccination with peptide (redox motif + epitope) adsorbed on aluminum hydroxide, SC: induction of cytolytic CD4+ T cells; type: in vivo, human
# Source text: A vaccination strategy making use of a mixture of two peptides encompassing the minimal binding sequence of class II-restricted epitopes and a thioreductase motif is therefore established.
# Administration of a mixture of these two peptides adsorbed on aluminum hydroxide elicits specific CD4+ T cells with cytolytic properties.
# Patients in need for EPO injection are vaccinated by administration of peptide [SEQ ID NO:18] using a standard procedure of peptide adsorbed on aluminum hydroxide and administered by SC injection.
# Patients affected by Fabry disease are immunized with peptide of SEQ ID NO:21, using a standard procedure of peptide adsorbed on aluminium hydroxide and administered by SC injection.
# The mammalian expression vector pCMV with cytomegalovirus promotor is engineered to allow the expression in CHO (Chinese hamster ovary) cells of any protein for replacement therapy, in fusion with the promiscuous CLIP-derived epitope described in example 2 [SEQ ID NO:17]. Patients in need for injection with a protein for replacement therapy are first vaccinated by administration of a peptide comprising a thioreductase motif and the modified CLIP-derived epitope described in example 2 [SEQ ID NO:18].
# CD4+ T cells [2] = conditions: peptide adsorbed on aluminum hydroxide, SC injection; known from WO200817517; cited from earlier work
# cytolytic CD4+ T cells = test: Administration of epitope-tagged therapeutic protein to a previously vaccinated / cell-treated individual: activation of cytolytic CD4+ T cells and immune response to the protein; type: in vivo, human; conditions: individual pretreated with the matching redox-motif peptide or with autologous cells activated by it
# Source text: Recombinant alpha-galactosidase can be modified as to contain the sequence of a class II-restricted promiscuous T cell epitope added at the amino-terminal end of the molecule.
# The promiscuous nature of the CLIP-modified epitope makes it possible to use the same vaccine and the same EPO molecule for any patient in need of such therapy, regardless of its HLA profile.
molecule,measurement,setting,value
CPYC-LF-LKSDGRVKYTLN (CPYCLFLKSDGRVKYTLN; CxxC + redox motif apolipoprotein B-100 epitope) [SEQ ID NO:21],elicitation of specific CD4+ T cells with cytolytic properties,CD4+ T cells [1],Epitope-specific cytolytic CD4+ T cells are then produced
CPYC-VR-FFMATRLLMQAL (CPYCVRFFMATRLLMQAL; CxxC redox motif + modified clip peptide) [SEQ ID NO:18],elicitation of epitope-specific cytolytic CD4+ T cells,CD4+ T cells [2],elicit epitope-specific cytolytic CD4+ T cells
"modified alpha-galactosidase: recombinant alpha-galactosidase modified to contain the LFLKSDGRVKYTLN promiscuous epitope (protein, apolipoprotein B-100 epitope + alpha galactosidase) LFLKSDGRVKYTLNDNGLARTPTMGWLHWERFMCNLDCQEEPDSCISEKLFMEMAELMVSEGWKDAGYEYLCIDDCWMAPQRDSEGRLQADPQRFPHGIRQLANYVHSKGLKLGIYADVGNKTCAGFPGSFGYYDIDAQTFADWGVDLLKFDGCYCDSLENLADGYKHMSLALNRTGRSIVYSCEWPLYMWPFQKPNYTEIRQYCNHWRNFADIDDSWKSIKSILDWTSFNQERIVDVAGPGGWNDPDMLVIGNFGLSWNQQVTQMALWAIMAAPLFMSNDLRHISPQAKALLQDKDVIAINQDPLGKQGYQLRQGDNFEVWERPLSGLAWAVAMINRQEIGGPRSYTIAVASLGKGVACNPACFITQLLPVKRKLGFYEWTSRLRSHINPTGTVLLQLENTMQMSLKDLL",immune response towards the therapeutic protein,cytolytic CD4+ T cells,does not elicit an immune response to alpha-galactosidase

# — patent US11787849B2, “Methods and compounds for eliminating immune responses to therapeutic agents” (IMCYSE SA, priority 2015, dated 2023)
